For 29 molecules, EC50 and IC50 results are on record in ChEMBL document CHEMBL2346513, “Synthesis and evaluation of methylsulfonylnitrobenzamides (MSNBAs) as inhibitors of the thyroid hormone receptor-coactivator interaction” (Bioorg Med Chem Lett, 2013).

The test system of experiment [1] is HepG2. Kind of experiment: Cytotoxicity against human HepG2 cells assessed as ATP level after 72 hrs by CellTiter-Glo assay. It counts as cell-based. The following applies: HepG2, 72 h. Background: Cellular ATP, detected with luciferase, serves as a proxy for viable cell number.
In experiment [2] the target is T1, Vitamin D3 receptor (Homo sapiens, UniProt P11473).
T1 sequence (P11473 whole entry): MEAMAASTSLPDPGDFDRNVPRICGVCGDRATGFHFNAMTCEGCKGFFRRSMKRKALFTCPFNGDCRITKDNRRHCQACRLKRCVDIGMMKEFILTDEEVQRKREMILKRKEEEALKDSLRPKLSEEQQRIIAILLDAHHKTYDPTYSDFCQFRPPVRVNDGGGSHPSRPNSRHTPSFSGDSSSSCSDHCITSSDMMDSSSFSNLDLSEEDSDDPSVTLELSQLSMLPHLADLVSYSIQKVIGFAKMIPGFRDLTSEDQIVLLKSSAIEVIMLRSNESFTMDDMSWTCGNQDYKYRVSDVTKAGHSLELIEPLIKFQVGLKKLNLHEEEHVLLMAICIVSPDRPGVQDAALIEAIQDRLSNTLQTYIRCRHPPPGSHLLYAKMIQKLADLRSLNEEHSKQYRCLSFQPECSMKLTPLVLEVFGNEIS
In words: Inhibition of VDR (unknown origin) interaction to SRC2-3 peptide by fluorescence polarization assay. (Fluorescence polarisation rises when a labelled molecule tumbles more slowly, as on binding a larger partner.)

Experiment [3] concerns the target T2, Thyroid hormone receptor alpha (Homo sapiens, UniProt P10827).
T2 sequence (P10827 whole entry): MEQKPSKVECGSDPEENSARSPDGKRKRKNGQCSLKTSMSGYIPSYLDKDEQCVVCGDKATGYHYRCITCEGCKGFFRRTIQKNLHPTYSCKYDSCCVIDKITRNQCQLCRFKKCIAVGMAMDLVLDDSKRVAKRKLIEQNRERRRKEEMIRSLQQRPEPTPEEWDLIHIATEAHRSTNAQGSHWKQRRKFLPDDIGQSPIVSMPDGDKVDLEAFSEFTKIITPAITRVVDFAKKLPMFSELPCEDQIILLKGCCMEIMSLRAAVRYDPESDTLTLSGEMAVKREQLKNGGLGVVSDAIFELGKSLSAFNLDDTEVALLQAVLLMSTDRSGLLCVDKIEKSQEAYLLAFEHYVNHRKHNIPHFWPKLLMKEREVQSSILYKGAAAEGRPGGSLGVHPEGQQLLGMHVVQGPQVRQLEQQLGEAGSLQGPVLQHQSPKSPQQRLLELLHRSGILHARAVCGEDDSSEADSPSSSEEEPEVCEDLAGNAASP
Kind of experiment: Inhibition of TRalpha-LBD (unknown origin) interaction to texas red-labeled SRC2-2 peptide by fluorescence polarization assay.

The target of experiment [4] is T3, Thyroid hormone receptor beta (Homo sapiens, UniProt P10828).
T3 sequence (P10828 whole entry): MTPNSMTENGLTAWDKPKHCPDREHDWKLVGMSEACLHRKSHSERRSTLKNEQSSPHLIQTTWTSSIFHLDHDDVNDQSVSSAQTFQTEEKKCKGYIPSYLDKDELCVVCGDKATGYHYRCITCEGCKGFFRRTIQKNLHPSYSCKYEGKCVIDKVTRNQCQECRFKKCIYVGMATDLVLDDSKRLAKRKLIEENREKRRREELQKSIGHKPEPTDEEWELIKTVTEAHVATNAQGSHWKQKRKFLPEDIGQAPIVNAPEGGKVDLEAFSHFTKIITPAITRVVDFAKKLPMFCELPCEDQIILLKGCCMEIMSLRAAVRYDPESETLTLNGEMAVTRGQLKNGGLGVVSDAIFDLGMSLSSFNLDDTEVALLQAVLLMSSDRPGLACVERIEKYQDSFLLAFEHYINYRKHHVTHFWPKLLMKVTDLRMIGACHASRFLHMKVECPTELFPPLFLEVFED
Kind of experiment: Inhibition of TRbeta-LBD (unknown origin) interaction to texas red-labeled SRC2-2 peptide by fluorescence polarization assay.

In the case of `CN(Cc1ccccc1)C(=O)C1CCN(C(=O)c2ccc(S(C)(=O)=O)c([N+](=O)[O-])c2)CC1`, the EC50 in experiment [1] was above 27 µM. For the same molecule, the IC50 in experiment [2], in experiment [3] and in experiment [4] was above 60 µM each time.

`CS(=O)(=O)c1ccc(C(=O)N2CCC(C(=O)N3CCCCC3)CC2)cc1[N+](=O)[O-]`: the 50% effective concentration (EC50) in experiment [1] is above 27 µM. The IC50 in experiment [2], in experiment [3] and in experiment [4] was above 60 µM each time.

With `CC1CCN(C(=O)CCNC(=O)c2ccc(S(C)(=O)=O)c([N+](=O)[O-])c2)CC1`, in experiment [1], the EC50 was above 27 µM. The concentration for half-maximal inhibition (IC50) in experiment [2], in experiment [3] and in experiment [4] was above 60 µM throughout.

On to `CS(=O)(=O)c1ccc(C(=O)NCC(=O)N2CCN(c3ccccc3F)CC2)cc1[N+](=O)[O-]`, for which the concentration giving a half-maximal response (EC50) in experiment [1] is above 27 µM. Also, the IC50 in experiment [2], in experiment [3] and in experiment [4] was above 60 µM in each case.

`CS(=O)(=O)c1ccc(C(=O)NCCC(=O)N2CCN(c3ccc(C(F)(F)F)cc3)CC2)cc1[N+](=O)[O-]`: in experiment [1], the 50% effective concentration (EC50) is above 27 µM. The IC50 in experiment [2], in experiment [3] and in experiment [4] was above 60 µM in each case.

`CS(=O)(=O)c1ccc(C(=O)NCCC(=O)N2CCCc3ccccc32)cc1[N+](=O)[O-]`: in experiment [1], the concentration for a half-maximal effect (EC50) stood at 10.5 µM. Also, the 50% inhibitory concentration (IC50) in experiment [2], in experiment [3] and in experiment [4] was above 60 µM in each case.

For `CS(=O)(=O)c1ccc(C(=O)NCC(=O)N2CCN(c3ccc(C(F)(F)F)cc3)CC2)cc1[N+](=O)[O-]`, the concentration giving a half-maximal response (EC50) in experiment [1] was above 27 µM. Further, the concentration for half-maximal inhibition (IC50) in experiment [2], in experiment [3] and in experiment [4] was above 60 µM each time.

Regarding `CN(Cc1ccccc1F)C(=O)CCNC(=O)c1ccc(S(C)(=O)=O)c([N+](=O)[O-])c1`, the EC50 in experiment [1] is above 27 µM. Further, the half-inhibitory concentration (IC50) in experiment [2], in experiment [3] and in experiment [4] was above 60 µM throughout.

With `CN1CCN(C(=O)CNC(=O)c2ccc(S(C)(=O)=O)c([N+](=O)[O-])c2)CC1`, the concentration giving a half-maximal response (EC50) in experiment [1] was above 27 µM. For the same molecule, the IC50 in experiment [2], in experiment [3] and in experiment [4] was above 60 µM throughout.

`CS(=O)(=O)c1ccc(C(=O)NCC(=O)N2CCN(c3ccc(F)cc3)CC2)cc1[N+](=O)[O-]`: the EC50 in experiment [1] came out at 12.9 µM. For the same molecule, the IC50 is 51 µM in experiment [2], 58 µM in experiment [3] and above 60 µM in experiment [4].

Regarding `Cc1ccc(N2CCN(C(=O)CN(C)C(=O)c3ccc(S(C)(=O)=O)c([N+](=O)[O-])c3)CC2)cc1`, the EC50 in experiment [1] is above 27 µM. Moreover, the IC50 in experiment [2], in experiment [3] and in experiment [4] was above 60 µM throughout.

Take `CS(=O)(=O)c1ccc(C(=O)NCCC(=O)N2CCN(c3ccccc3F)CC2)cc1[N+](=O)[O-]`: the concentration for a half-maximal effect (EC50) in experiment [1] was above 27 µM. In addition, the concentration for half-maximal inhibition (IC50) in experiment [2] is 66 µM; in experiment [3], above 60 µM; in experiment [4], above 60 µM.

Turning to `CN(CC(=O)N(Cc1ccccc1)Cc1ccccc1)C(=O)c1ccc(S(C)(=O)=O)c([N+](=O)[O-])c1`, the EC50 in experiment [1] is above 27 µM. Moreover, the half-maximal inhibitory concentration (IC50) in experiment [2], in experiment [3] and in experiment [4] was above 60 µM each time.

Take `CN(Cc1ccccc1F)C(=O)C1CCN(C(=O)c2ccc(S(C)(=O)=O)c([N+](=O)[O-])c2)CC1`: the EC50 in experiment [1] is above 27 µM. The IC50 in experiment [2], in experiment [3] and in experiment [4] was above 60 µM in each case.

For the molecule `CC1Cc2ccccc2N1C(=O)CCCNC(=O)c1ccc(S(C)(=O)=O)c([N+](=O)[O-])c1` (stereo unspecified), the EC50 in experiment [1] was above 27 µM. The IC50 in experiment [2], in experiment [3] and in experiment [4] was above 60 µM each time.

Regarding `CS(=O)(=O)c1ccc(C(=O)N2CCC(C(=O)N3CCC(c4ccccc4)CC3)CC2)cc1[N+](=O)[O-]`, the EC50 in experiment [1] was above 27 µM. Moreover, the IC50 in experiment [2], in experiment [3] and in experiment [4] was above 60 µM throughout.

In the case of `CS(=O)(=O)c1ccc(C(=O)N2CCC(C(=O)N3Cc4ccccc4C3)CC2)cc1[N+](=O)[O-]`, the 50% effective concentration (EC50) in experiment [1] is above 27 µM. Besides, the IC50 in experiment [2], in experiment [3] and in experiment [4] was above 60 µM each time.

Regarding `CS(=O)(=O)c1ccc(C(=O)NCC(=O)N2CCc3ccccc3C2)cc1[N+](=O)[O-]`, the concentration giving a half-maximal response (EC50) in experiment [1] is above 27 µM. Further, the IC50 in experiment [2] is 50 µM; in experiment [3], above 60 µM; in experiment [4], 46 µM.

For the molecule `CS(=O)(=O)c1ccc(C(=O)NCCC(=O)N2CCN(c3ccccc3)CC2)cc1[N+](=O)[O-]`, the EC50 in experiment [1] was above 27 µM. Besides, the half-inhibitory concentration (IC50) in experiment [2], in experiment [3] and in experiment [4] was above 60 µM in each case.

In the case of `CS(=O)(=O)c1ccc(C(=O)NCCCC(=O)N2CCN(c3ccc(C(F)(F)F)cc3)CC2)cc1[N+](=O)[O-]`, the concentration for a half-maximal effect (EC50) in experiment [1] was 13 µM. In addition, the figures for the concentration for half-maximal inhibition (IC50) in experiment [2], in experiment [3] and in experiment [4] were 7 µM, above 60 µM and above 60 µM, respectively.

Turning to `CS(=O)(=O)c1ccc(C(=O)NCCCC(=O)N2CCc3ccccc3C2)cc1[N+](=O)[O-]`, the EC50 in experiment [1] was above 27 µM. The 50% inhibitory concentration (IC50) in experiment [2], in experiment [3] and in experiment [4] was above 60 µM each time.

As to `CS(=O)(=O)c1ccc(C(=O)NCCC(=O)N2Cc3ccccc3C2)cc1[N+](=O)[O-]`, the EC50 in experiment [1] was 11.2 µM. Further, the IC50 in experiment [2], in experiment [3] and in experiment [4] was above 60 µM each time.

Take `CS(=O)(=O)c1ccc(C(=O)NCC(=O)NC23CC4CC(CC(C4)C2)C3)cc1[N+](=O)[O-]`: the EC50 in experiment [1] is above 27 µM. In addition, the results for the IC50 in experiment [2], in experiment [3] and in experiment [4] were above 60 µM, 9.6 µM and 16 µM, respectively.

`CS(=O)(=O)c1ccc(C(=O)NCCC(=O)N2CCc3ccccc32)cc1[N+](=O)[O-]`: the 50% effective concentration (EC50) in experiment [1] was above 27 µM. The IC50 in experiment [2], in experiment [3] and in experiment [4] was above 60 µM throughout.

On to `CS(=O)(=O)c1ccc(C(=O)N2CCC(C(=O)N(Cc3ccccc3)Cc3ccccc3)CC2)cc1[N+](=O)[O-]`, for which the EC50 in experiment [1] is above 27 µM. Besides, the IC50 in experiment [2], in experiment [3] and in experiment [4] was above 60 µM in each case.

Turning to `CCCN(C(=O)CCNC(=O)c1ccc(S(C)(=O)=O)c([N+](=O)[O-])c1)c1ccccc1`, the half-maximal effective concentration (EC50) in experiment [1] was above 27 µM. Moreover, the results for the half-inhibitory concentration (IC50) in experiment [2], in experiment [3] and in experiment [4] were 40 µM, 32 µM and 50 µM, respectively.

In the case of `CS(=O)(=O)c1ccc(C(=O)NCCC(=O)NC23CC4CC(CC(C4)C2)C3)cc1[N+](=O)[O-]`, in experiment [1], the EC50 was above 27 µM. Moreover, the figures for the half-inhibitory concentration (IC50) in experiment [2], in experiment [3] and in experiment [4] were 44 µM, 25 µM and 31 µM, respectively.

`CS(=O)(=O)c1ccc(C(=O)N2CCC(C(=O)N3CCN(c4ccc(F)cc4)CC3)CC2)cc1[N+](=O)[O-]`: in experiment [1], the EC50 is above 27 µM. Further, the IC50 in experiment [2], in experiment [3] and in experiment [4] was above 60 µM in each case.

`CS(=O)(=O)c1ccc(C(=O)NCCCC(=O)N2CCN(c3ccc(F)cc3)CC2)cc1[N+](=O)[O-]`: the half-maximal effective concentration (EC50) in experiment [1] is above 27 µM. Further, the half-maximal inhibitory concentration (IC50) in experiment [2] was 65 µM; in experiment [3], above 60 µM; in experiment [4], above 60 µM.

Broadly, the EC50 is the concentration that produces a half-maximal response. Broadly, the IC50 is the concentration that inhibits the measured activity by half. The low end stands for inhibition by little substance, the high end for a need for much substance.
